In ChEMBL document CHEMBL1201862, “PubChem BioAssay data set” (2004):
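48-hour exposure; five concentrations; linearly interpolated endpoints. GI50 is the concentration that inhibits growth by half.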 The source made the active and inactive calls. Cut-off read from the data, not from the text of the source: active = GI50 up to about 1.1 µM and inactive = higher.

Tests used:
Assay in all cases: NCI anticancer screen, dose series, 48 h
786-0 = system: 786-0
A549 = system: A549
ACHN = system: ACHN
CCRF-CEM = system: CCRF-CEM
HOP-62 = system: HOP-62
HT-29 = system: HT-29
MOLT-4 = system: MOLT-4
Malme-3M = system: Malme-3M
NCI-H23 = system: NCI-H23
OVCAR-4 = system: OVCAR-4
OVCAR-8 = system: OVCAR-8
RPMI-8226 = system: RPMI-8226
SK-MEL-28 = system: SK-MEL-28
SK-MEL-2 = system: SK-MEL-2
SNB-78 = system: SNB-78
U-251 = system: U-251
UO-31 = system: UO-31
SNB-75 = system: SNB-75

Measured: GI50

CCOC(=O)C(=O)Nc1ccc(C)cc1C
inactive: 786-0 > 100 µM | A549 > 100 µM | ACHN > 100 µM | CCRF-CEM > 100 µM | HOP-62 > 100 µM | HT-29 > 100 µM | MOLT-4 > 100 µM | Malme-3M > 100 µM | NCI-H23 > 100 µM | OVCAR-4 > 100 µM | OVCAR-8 > 100 µM | RPMI-8226 > 100 µM | SK-MEL-28 > 100 µM | SK-MEL-2 > 100 µM | SNB-78 > 100 µM | U-251 > 100 µM | UO-31 > 100 µM

C#CCNC(=O)NCCCCC(NC(C)=O)C(=O)NCc1ccccc1 (stereo not given)
inactive: 786-0 > 100 µM | A549 > 100 µM | ACHN > 100 µM | CCRF-CEM > 100 µM | HOP-62 > 100 µM | HT-29 > 100 µM | MOLT-4 > 100 µM | Malme-3M > 100 µM | NCI-H23 > 100 µM | OVCAR-4 > 100 µM | OVCAR-8 > 100 µM | RPMI-8226 > 100 µM | SK-MEL-28 > 100 µM | SNB-75 > 100 µM | SNB-78 > 100 µM | U-251 > 100 µM | UO-31 > 100 µM

CC(C)c1cc2c(O)c(c1)Cc1cc(C(C)C)cc(c1O)Cc1cc(C(C)C)cc(c1O)Cc1cc(C(C)C)cc(c1O)Cc1cc(C(C)C)cc(c1O)Cc1cc(C(C)C)cc(c1O)C2
inactive: 786-0 > 100 µM | A549 > 100 µM | ACHN > 100 µM | CCRF-CEM > 100 µM | HOP-62 > 100 µM | HT-29 > 100 µM | MOLT-4 > 100 µM | Malme-3M > 100 µM | NCI-H23 > 100 µM | OVCAR-4 > 100 µM | OVCAR-8 > 100 µM | RPMI-8226 > 100 µM | SK-MEL-28 > 100 µM | SK-MEL-2 > 100 µM | SNB-75 24.9 µM | SNB-78 > 100 µM | U-251 > 100 µM | UO-31 > 100 µM

N#Cc1cc([N+](=O)[O-])ccc1NC(=O)C(=O)C(C(=O)c1ccc2ccccc2c1)C1OCc2ccccc21 (stereo not given)
inactive: 786-0 6.28 µM | A549 10.7 µM | ACHN 14.1 µM | CCRF-CEM 3.92 µM | HOP-62 6.65 µM | HT-29 12.9 µM | MOLT-4 2.18 µM | Malme-3M 8.41 µM | NCI-H23 4.5 µM | OVCAR-4 > 25.5 µM | OVCAR-8 5.43 µM | RPMI-8226 5.2 µM | SK-MEL-28 4.18 µM | SK-MEL-2 10.9 µM | SNB-75 4.23 µM | SNB-78 3.93 µM | U-251 4 µM | UO-31 12.8 µM

O=C(N/N=C(\C1=Nc2ccc(Cl)cc2NC1O)C(O)/C=C/c1ccccc1)c1ccncc1 (stereo not given)
inactive: 786-0 > 100 µM | A549 > 100 µM | ACHN > 100 µM | CCRF-CEM > 100 µM | HOP-62 > 100 µM | HT-29 > 100 µM | MOLT-4 > 100 µM | Malme-3M > 100 µM | NCI-H23 > 100 µM | OVCAR-4 > 100 µM | OVCAR-8 > 100 µM | RPMI-8226 > 100 µM | SK-MEL-28 > 100 µM | SNB-75 > 100 µM | SNB-78 > 100 µM | U-251 > 100 µM | UO-31 30.8 µM

O=C(/C=C/c1ccccc1F)c1ccc([N+](=O)[O-])cc1
inactive: 786-0 26.8 µM | A549 31.4 µM | ACHN 31.2 µM | HOP-62 32.6 µM | HT-29 9.44 µM | MOLT-4 2.07 µM | Malme-3M 27.8 µM | NCI-H23 31.2 µM | OVCAR-4 25.3 µM | OVCAR-8 25.8 µM | RPMI-8226 2 µM | SK-MEL-28 18.4 µM | SNB-75 4.58 µM | SNB-78 37.2 µM | U-251 15.1 µM | UO-31 11.6 µM

COc1ccc(NC(=O)C/C(C)=N\N=C(N)N)c([N+](=O)[O-])c1
inactive: 786-0 > 100 µM | A549 > 100 µM | ACHN > 100 µM | CCRF-CEM > 100 µM | HOP-62 > 100 µM | HT-29 > 100 µM | MOLT-4 > 100 µM | Malme-3M > 100 µM | NCI-H23 > 100 µM | OVCAR-4 > 100 µM | OVCAR-8 > 100 µM | RPMI-8226 > 100 µM | SK-MEL-28 > 100 µM | SK-MEL-2 > 100 µM | SNB-75 > 100 µM | SNB-78 > 100 µM | U-251 > 100 µM | UO-31 > 100 µM

CN/N=C(/c1nc2ccc([N+](=O)[O-])cc2nc1O)C(O)c1ccc(C(O)/C(=N\NC)c2nc3ccc([N+](=O)[O-])cc3nc2O)cc1 (stereo not given)
inactive: 786-0 > 100 µM | A549 64.6 µM | ACHN 46.9 µM | CCRF-CEM 19.8 µM | HOP-62 42.2 µM | HT-29 > 100 µM | MOLT-4 48.2 µM | Malme-3M > 100 µM | NCI-H23 > 100 µM | OVCAR-8 > 100 µM | RPMI-8226 68.1 µM | SK-MEL-28 > 100 µM | SK-MEL-2 48 µM | SNB-75 > 100 µM | SNB-78 > 100 µM | U-251 > 100 µM | UO-31 55 µM

N#CC1(Cc2ccc(N)cc2)c2ccccc2C=CN1C(=O)c1ccccc1 (stereo not given)
inactive: 786-0 50.2 µM | A549 35.7 µM | ACHN 31.7 µM | CCRF-CEM 29 µM | HOP-62 > 100 µM | HT-29 36.1 µM | MOLT-4 28.9 µM | Malme-3M 24.4 µM | NCI-H23 47.1 µM | OVCAR-8 40.6 µM | RPMI-8226 35.2 µM | SK-MEL-28 79.3 µM | SK-MEL-2 9.29 µM | SNB-75 29.3 µM | SNB-78 47.9 µM | U-251 46.7 µM | UO-31 19.8 µM

CC(C)(C)C1CCC(O)(c2ccccc2)CC1 (stereo not given)
inactive: 786-0 63.2 µM | A549 > 100 µM | ACHN > 100 µM | CCRF-CEM 92.9 µM | HOP-62 > 100 µM | HT-29 74.3 µM | MOLT-4 59.8 µM | Malme-3M > 100 µM | NCI-H23 > 100 µM | OVCAR-8 88.3 µM | RPMI-8226 47.8 µM | SK-MEL-28 > 100 µM | SK-MEL-2 > 100 µM | SNB-75 86.7 µM | SNB-78 > 100 µM | U-251 40.6 µM | UO-31 > 100 µM

CCCCCCN(CCCCCC)C(=O)Cc1c2n(c3ccccc13)Cc1ccccc1-2
inactive: 786-0 85.1 µM | A549 52.8 µM | ACHN 50.2 µM | CCRF-CEM 28.1 µM | HOP-62 86.7 µM | HT-29 62.8 µM | MOLT-4 33.3 µM | Malme-3M 88.9 µM | NCI-H23 49.8 µM | OVCAR-4 79.8 µM | OVCAR-8 44.8 µM | RPMI-8226 28.8 µM | SK-MEL-28 > 100 µM | SK-MEL-2 49.3 µM | SNB-75 > 100 µM | SNB-78 71.8 µM | U-251 34.4 µM | UO-31 44.6 µM
